ChEMBL document CHEMBL3621185, “Progress in the development of fatty acid synthase inhibitors as anticancer targets” (Bioorg Med Chem Lett, 2015)

Assays:
[1] = Cytotoxicity against human MCF10A cells; type: functional, cell-based; conditions: MCF-10A
[2] = molecular target: T1, Fatty acid synthase (Homo sapiens, UniProt P49327); test: Inhibition of fatty acid synthase (unknown origin)
[3] = molecular target: T1, Fatty acid synthase; test: Inhibition of fatty acid synthase KR domain (unknown origin)
[4] = Cytotoxicity against human PC-3M-luc-C6 cells; type: functional, cell-based
[5] = system: A2780; test: Cytotoxicity against human A2780 cells; type: functional, cell-based

T1 sequence (P49327 whole entry, the tested form may be a part): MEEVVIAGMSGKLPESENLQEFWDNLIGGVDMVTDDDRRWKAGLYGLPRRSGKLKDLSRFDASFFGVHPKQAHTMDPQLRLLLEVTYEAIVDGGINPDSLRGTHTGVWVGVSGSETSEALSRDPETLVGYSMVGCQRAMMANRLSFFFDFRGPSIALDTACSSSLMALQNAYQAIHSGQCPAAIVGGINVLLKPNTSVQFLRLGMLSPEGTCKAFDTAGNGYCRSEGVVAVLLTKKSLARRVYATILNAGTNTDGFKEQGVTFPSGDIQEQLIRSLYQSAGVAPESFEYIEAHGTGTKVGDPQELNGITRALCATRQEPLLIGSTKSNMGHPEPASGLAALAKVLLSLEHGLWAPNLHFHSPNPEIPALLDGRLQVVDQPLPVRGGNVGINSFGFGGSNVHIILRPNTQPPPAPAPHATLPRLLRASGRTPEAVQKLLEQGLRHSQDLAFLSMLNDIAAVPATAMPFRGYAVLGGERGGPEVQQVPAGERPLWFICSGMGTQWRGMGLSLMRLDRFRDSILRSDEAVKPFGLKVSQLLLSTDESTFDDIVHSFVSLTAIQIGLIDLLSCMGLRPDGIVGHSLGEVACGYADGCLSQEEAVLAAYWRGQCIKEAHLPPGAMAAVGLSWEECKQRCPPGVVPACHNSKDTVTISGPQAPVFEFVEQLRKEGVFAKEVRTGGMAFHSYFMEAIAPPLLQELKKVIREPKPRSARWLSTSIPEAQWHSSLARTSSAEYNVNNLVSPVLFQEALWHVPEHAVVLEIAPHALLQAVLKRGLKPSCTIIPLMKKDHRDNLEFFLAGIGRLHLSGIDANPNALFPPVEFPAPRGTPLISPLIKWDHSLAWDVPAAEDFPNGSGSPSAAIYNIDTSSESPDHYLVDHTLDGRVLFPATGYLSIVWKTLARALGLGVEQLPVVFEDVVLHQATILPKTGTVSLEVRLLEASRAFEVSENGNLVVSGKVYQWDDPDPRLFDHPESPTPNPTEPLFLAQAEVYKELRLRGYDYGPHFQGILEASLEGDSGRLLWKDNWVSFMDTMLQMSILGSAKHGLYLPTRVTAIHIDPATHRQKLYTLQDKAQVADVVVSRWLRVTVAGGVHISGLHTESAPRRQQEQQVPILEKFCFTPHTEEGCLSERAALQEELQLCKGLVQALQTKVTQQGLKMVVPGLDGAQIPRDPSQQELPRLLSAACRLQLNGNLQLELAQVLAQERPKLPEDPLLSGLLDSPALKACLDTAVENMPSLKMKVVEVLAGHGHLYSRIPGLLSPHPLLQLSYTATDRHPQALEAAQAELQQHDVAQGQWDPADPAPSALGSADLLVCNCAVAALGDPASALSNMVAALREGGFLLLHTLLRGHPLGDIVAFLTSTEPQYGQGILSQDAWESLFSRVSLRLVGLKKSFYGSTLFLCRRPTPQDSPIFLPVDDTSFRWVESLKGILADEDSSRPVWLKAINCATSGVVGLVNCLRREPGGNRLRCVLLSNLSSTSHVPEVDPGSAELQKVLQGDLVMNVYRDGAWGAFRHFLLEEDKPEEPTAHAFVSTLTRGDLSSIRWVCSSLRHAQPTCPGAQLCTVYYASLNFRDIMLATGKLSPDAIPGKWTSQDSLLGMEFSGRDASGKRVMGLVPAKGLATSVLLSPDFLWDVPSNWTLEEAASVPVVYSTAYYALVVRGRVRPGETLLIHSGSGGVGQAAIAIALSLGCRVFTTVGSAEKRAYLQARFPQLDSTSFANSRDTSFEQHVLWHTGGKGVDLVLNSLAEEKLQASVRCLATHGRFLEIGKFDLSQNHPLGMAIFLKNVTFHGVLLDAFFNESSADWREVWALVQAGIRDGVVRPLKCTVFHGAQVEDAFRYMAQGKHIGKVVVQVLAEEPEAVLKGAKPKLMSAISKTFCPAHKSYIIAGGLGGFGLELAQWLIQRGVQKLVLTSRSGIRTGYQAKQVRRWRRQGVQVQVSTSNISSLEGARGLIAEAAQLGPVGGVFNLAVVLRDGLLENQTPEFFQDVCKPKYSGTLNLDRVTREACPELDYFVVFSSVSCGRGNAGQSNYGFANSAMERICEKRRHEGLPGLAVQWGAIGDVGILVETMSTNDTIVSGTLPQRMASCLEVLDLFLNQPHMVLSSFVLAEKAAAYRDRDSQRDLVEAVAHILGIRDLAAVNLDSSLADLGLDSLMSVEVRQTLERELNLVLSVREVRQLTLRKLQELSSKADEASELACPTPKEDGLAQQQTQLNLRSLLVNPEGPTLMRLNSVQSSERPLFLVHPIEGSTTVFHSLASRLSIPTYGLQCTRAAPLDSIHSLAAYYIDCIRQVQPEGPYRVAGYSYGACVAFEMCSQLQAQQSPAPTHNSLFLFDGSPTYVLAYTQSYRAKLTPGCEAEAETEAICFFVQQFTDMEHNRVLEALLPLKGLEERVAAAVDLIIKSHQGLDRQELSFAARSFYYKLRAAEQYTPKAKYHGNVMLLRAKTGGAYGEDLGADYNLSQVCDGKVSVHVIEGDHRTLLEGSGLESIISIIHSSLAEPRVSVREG

## Cc1cc(C)cc(N2C(=O)NC(=O)/C(=C\c3ccc(-c4ccccc4)o3)C2=O)c1
[1]
  IC50: 24300 nM

## CN(C[C@@H]1CCN(C(=O)C2CC2)C1)C(=O)c1ccc(-c2ccc3[nH]ccc3c2)cc1F
[2]
  IC50: 20 nM

## O=C(C1CC1)N1CC[C@@H](Cc2n[nH]c(=O)n2-c2ccc(-c3ccc4ccncc4c3)cc2F)C1
[2]
  IC50: 3 nM

## O=C1COC2(CCN(S(=O)(=O)c3ccc(-c4cccc5cnccc45)cc3)CC2)CN1C1CC1
[2]
  IC50: 6 nM

## N#Cc1ccc2cc(N3CCN(S(=O)(=O)N4CCC5(CC4)CN(C4CC4)C(=O)CO5)CC3)ccc2c1
[2]
  IC50: 10 nM

## CC1(C)N=C(c2ccc(-c3c[nH]c4ccccc34)cc2)N(C[C@@H]2CCN(C(=O)C3CC3)C2)C1=O
[3]
  IC50: 41 nM
[4]
  IC50: 8 nM
[5]
  IC50: 3 nM

## Cc1ccc(C(=O)N2CCC(c3ccc4nncn4c3)CC2)cc1NC(=O)c1ccc(Cl)nc1
[3]
  IC50: 93 nM
[4]
  IC50: 35 nM
[5]
  IC50: 41 nM

## O=C(C1CC1)N1CCC(Cn2cnnc2-c2ccc(-c3ccc4[nH]ncc4c3)cc2)C1 (single isomer, unassigned)
[2]
  IC50: 13 nM
